From PMC10999543, “Identification of kinase modulators as host-directed therapeutics against intracellular methicillin-resistant Staphylococcus aureus” (Frontiers in Cellular and Infection Microbiology, 2024)
Read-outs that look alike come from different tables or passages of the source.

Assays:
HeLa cells = assay: Compound screen by flow cytometry: HeLa cell count as surrogate readout of cell viability (z-scoreHeLa); format: cell-based, human; conditions: for cell count rep 1 / z-scoreHeLa rep 1: replicate 1; for cell count rep 2 / z-scoreHeLa rep 2: replicate 2; for cell count rep 3 / z-scoreHeLa rep 3: replicate 3; for z-scoreHeLa mean: mean of 3 replicates; as to all read-outs here: test concentration or dose not given here
In short: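 The viability surrogate was the count of fixed HeLa cells by flow cytometry, converted to z-scores against DMSO controls with values deviating two-fold excluded. Before counting, cells had been infected with MRSA for 1 h and cleared of extracellular bacteria with gentamicin. They were then exposed overnight to kinase inhibitors in triplicate.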

intracellular MRSA = format: cell-based, Staphylococcus aureus; conditions: for %GFP+ rep 1 / z-scoreMRSA+ rep 1: replicate 1; for %GFP+ rep 2 / z-scoreMRSA+ rep 2: replicate 2; for %GFP+ rep 3 / z-scoreMRSA+ rep 3: replicate 3; for z-scoreMRSA+ mean: mean of 3 replicates; as to %GFP+ rep 1: test concentration or dose not given here; as to %GFP+ rep 2: test concentration or dose not given here; as to %GFP+ rep 3: test concentration or dose not given here; as to effect: test concentration or dose not given here; as to z-scoreMRSA+ mean: test concentration or dose not given here; as to z-scoreMRSA+ rep 1: test concentration or dose not given here; as to z-scoreMRSA+ rep 2: test concentration or dose not given here; as to z-scoreMRSA+ rep 3: test concentration or dose not given here
In short: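 Values are z-scores: GFP-positive HeLa percentage and event count per well against plate statistics, minus the mean DMSO z-score. Wells deviating two-fold from controls were left out of plate means. Infection was at a mean MOI of 6.8, with an overnight compound exposure.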

[1] = PKIS compounds raw data, HeLa cell count
[2] = compound screen, HeLa cell count
[3] = PKIS compounds raw data, MRSA-infected HeLa cells
[4] = Yes/No: effect without cell death
[5] = compound screen, MRSA-infected HeLa cells
[6] = PKIS compound screen raw data, HeLa cell count
[7] = PKIS compound screen, HeLa cell count
[8] = PKIS compound screen, Yes/No call on z-scoreHeLa
[9] = PKIS compound screen raw data, MRSA-infected HeLa cells
[10] = PKIS compound screen, MRSA-infected HeLa cells
[11] = PKIS compound screen, Yes/No call (effect without cell death)
[12] = PKIS compound screen, Yes/No call on z-scoreMRSA+
[13] = PKIS compound screen, Yes/No call

With `COc1cccc(-n2nc(C)c3c(N/N=C(\C)c4ccncc4)ncnc32)c1` [GW809885X] as the molecule, how does the “cell count rep 1” value (HeLa cells; [1]) read?
Its value is 4315.

And the “cell count rep 2” value (HeLa cells; [1])?
Its value is 6939.

And the “cell count rep 3” value (HeLa cells; [1])?
Its value is 7689.

What about the cell death (HeLa cells; Yes/No call from z-scoreHeLa) of the same molecule?
The cell death was “No”.

And the z-scoreHeLa mean (HeLa cells; [2])?
Its z-scoreHeLa mean is 0.65.

What about the “z-scoreHeLa rep 1” value (HeLa cells; [2]) of the same molecule?
The value was -0.42.

What about the “z-scoreHeLa rep 2” value (HeLa cells; [2]) of the same molecule?
The value was 2.02.

What about the “z-scoreHeLa rep 3” value (HeLa cells; [2]) of the same molecule?
Its value is 0.35.

What about the “%GFP+ rep 1” value (intracellular MRSA; [3]) of the same molecule?
Its value is 10.1%.

What about the “%GFP+ rep 2” value (intracellular MRSA; [3]) of the same molecule?
The value was 9.2%.

What about the “%GFP+ rep 3” value (intracellular MRSA; [3]) of the same molecule?
Its value is 10.0%.

What about the effect (intracellular MRSA; Yes/No call from z-scoreMRSA+) of the same molecule?
Its effect is “No”.

And the hit (intracellular MRSA; [4])?
The hit was “No”.

And the “z-scoreMRSA+ mean” value (intracellular MRSA; [5])?
Its value is -1.40.

And the “z-scoreMRSA+ rep 1” value (intracellular MRSA; [5])?
The value was -0.98.

What about the “z-scoreMRSA+ rep 2” value (intracellular MRSA; [5]) of the same molecule?
The value was -1.45.

What about the “z-scoreMRSA+ rep 3” value (intracellular MRSA; [5]) of the same molecule?
Its value is -1.76.

Which results are given for `CN(c1ccc2c(c1)nc(NCc1ccccc1)n2C)c1ccnc(Nc2ccc(CS(C)(=O)=O)cc2)n1` [GW811603A]?
cell count rep 1 (HeLa cells; [1]): 3958; cell count rep 2 (HeLa cells; [1]): 3626; cell count rep 3 (HeLa cells; [1]): 4329; cell death (HeLa cells; Yes/No call from z-scoreHeLa): No; z-scoreHeLa mean (HeLa cells; [2]): -0.46; z-scoreHeLa rep 1 (HeLa cells; [2]): -0.28; z-scoreHeLa rep 2 (HeLa cells; [2]): -0.52; z-scoreHeLa rep 3 (HeLa cells; [2]): -0.57; %GFP+ rep 1 (intracellular MRSA; [3]): 29.9%; %GFP+ rep 2 (intracellular MRSA; [3]): 27.8%; %GFP+ rep 3 (intracellular MRSA; [3]): 24.6%; effect (intracellular MRSA; Yes/No call from z-scoreMRSA+): No; hit (intracellular MRSA; [4]): No; z-scoreMRSA+ mean (intracellular MRSA; [5]): 1.02; z-scoreMRSA+ rep 1 (intracellular MRSA; [5]): 1.08; z-scoreMRSA+ rep 2 (intracellular MRSA; [5]): 1.26; z-scoreMRSA+ rep 3 (intracellular MRSA; [5]): 0.72

`CCOc1ccc2c(-c3ccnc(Nc4cccc(C(F)(F)F)c4)n3)cnn2n1` [GW811761X] was tested. Which “cell count rep 1” value (HeLa cells; [6]) did it give?
The value was 25545.

What about the “cell count rep 2” value (HeLa cells; [6]) of the same molecule?
The value was 40447.

And the “cell count rep 3” value (HeLa cells; [6])?
Its value is 52915.

And the z-scoreHeLa mean (HeLa cells; [7])?
The z-scoreHeLa mean was 1.28.

What about the “z-scoreHeLa rep 1” value (HeLa cells; [7]) of the same molecule?
The value was 0.82.

And the “z-scoreHeLa rep 2” value (HeLa cells; [7])?
The value was 1.06.

What about the “z-scoreHeLa rep 3” value (HeLa cells; [7]) of the same molecule?
The value was 1.97.

And the cell death (HeLa cells; [8])?
The cell death was “No”.

And the “%GFP+ rep 1” value (intracellular MRSA; [9])?
The value was 16.8%.

What about the “%GFP+ rep 2” value (intracellular MRSA; [9]) of the same molecule?
The value was 16.8%.

And the “%GFP+ rep 3” value (intracellular MRSA; [9])?
Its value is 18.1%.

And the “z-scoreMRSA+ mean” value (intracellular MRSA; [10])?
Its value is -0.46.

And the “z-scoreMRSA+ rep 1” value (intracellular MRSA; [10])?
Its value is -0.34.

What about the “z-scoreMRSA+ rep 2” value (intracellular MRSA; [10]) of the same molecule?
The value was -0.52.

And the “z-scoreMRSA+ rep 3” value (intracellular MRSA; [10])?
The value was -0.51.

And the hit (intracellular MRSA; [11])?
Its hit is “No”.

What about the effect (intracellular MRSA; [12]) of the same molecule?
Its effect is “No”.

Which results are given for `O=C(c1ccc(-c2cc(-c3c[nH]nc3-c3ccccn3)ccn2)cc1)N1CCOCC1` [GW812171X]?
cell death (HeLa cells; [13]): No; z-scoreHeLa mean (HeLa cells; PKIS compound screen): 1.19; z-scoreHeLa rep 1 (HeLa cells; PKIS compound screen): 2.02; z-scoreHeLa rep 2 (HeLa cells; PKIS compound screen): 0.77; z-scoreHeLa rep 3 (HeLa cells; PKIS compound screen): 0.78; cell count rep 1 (HeLa cells; [1]): 9409; cell count rep 2 (HeLa cells; [1]): 7175; cell count rep 3 (HeLa cells; [1]): 6822; effect (intracellular MRSA; [13]): No; hit (intracellular MRSA; [11]): No; z-scoreMRSA+ mean (intracellular MRSA; PKIS compound screen): -0.14; z-scoreMRSA+ rep 1 (intracellular MRSA; PKIS compound screen): -0.40; z-scoreMRSA+ rep 2 (intracellular MRSA; PKIS compound screen): -0.08; z-scoreMRSA+ rep 3 (intracellular MRSA; PKIS compound screen): 0.06; %GFP+ rep 1 (intracellular MRSA; [3]): 25.0%; %GFP+ rep 2 (intracellular MRSA; [3]): 25.6%; %GFP+ rep 3 (intracellular MRSA; [3]): 27.6%

`CN(c1ccc2c(c1)nc(NCc1ccc(F)cc1)n2C)c1ccnc(Nc2ccc(CS(C)(=O)=O)cc2)n1` [GW813244A] was tested. Which “cell count rep 1” value (HeLa cells; [6]) did it give?
Its value is 29228.

And the “cell count rep 2” value (HeLa cells; [6])?
Its value is 26803.

And the “cell count rep 3” value (HeLa cells; [6])?
Its value is 36349.

And the z-scoreHeLa mean (HeLa cells; [7])?
The z-scoreHeLa mean was -0.26.

What about the “z-scoreHeLa rep 1” value (HeLa cells; [7]) of the same molecule?
Its value is 1.38.

And the “z-scoreHeLa rep 2” value (HeLa cells; [7])?
Its value is -1.49.

What about the “z-scoreHeLa rep 3” value (HeLa cells; [7]) of the same molecule?
Its value is -0.67.

What about the cell death (HeLa cells; [8]) of the same molecule?
The cell death was “No”.

And the “%GFP+ rep 1” value (intracellular MRSA; [9])?
The value was 19.9%.

And the “%GFP+ rep 2” value (intracellular MRSA; [9])?
Its value is 20.6%.

What about the “%GFP+ rep 3” value (intracellular MRSA; [9]) of the same molecule?
Its value is 22.3%.

And the “z-scoreMRSA+ mean” value (intracellular MRSA; [10])?
Its value is 0.68.

And the “z-scoreMRSA+ rep 1” value (intracellular MRSA; [10])?
The value was 0.65.

What about the “z-scoreMRSA+ rep 2” value (intracellular MRSA; [10]) of the same molecule?
The value was 0.62.

What about the “z-scoreMRSA+ rep 3” value (intracellular MRSA; [10]) of the same molecule?
The value was 0.76.

What about the hit (intracellular MRSA; [11]) of the same molecule?
Its hit is “No”.

And the effect (intracellular MRSA; [12])?
The effect was “No”.

With `CCCNC(=O)Nc1ccc(N(C)c2ccnc(NC3CC3)n2)cc1` [GW818933X] as the molecule, how does the “cell count rep 1” value (HeLa cells; [6]) read?
The value was 29169.

And the “cell count rep 2” value (HeLa cells; [6])?
The value was 27486.

What about the “cell count rep 3” value (HeLa cells; [6]) of the same molecule?
Its value is 16622.

What about the z-scoreHeLa mean (HeLa cells; [7]) of the same molecule?
Its z-scoreHeLa mean is -0.08.

What about the “z-scoreHeLa rep 1” value (HeLa cells; [7]) of the same molecule?
Its value is -0.17.

And the “z-scoreHeLa rep 2” value (HeLa cells; [7])?
Its value is 0.38.

What about the “z-scoreHeLa rep 3” value (HeLa cells; [7]) of the same molecule?
The value was -0.45.

What about the cell death (HeLa cells; [13]) of the same molecule?
Its cell death is “No”.

And the cell death (HeLa cells; [8])?
Its cell death is “No”.

What about the z-scoreHeLa mean (HeLa cells; PKIS compound screen) of the same molecule?
The z-scoreHeLa mean was 0.64.

What about the “z-scoreHeLa rep 1” value (HeLa cells; PKIS compound screen) of the same molecule?
The value was 0.56.

What about the “z-scoreHeLa rep 2” value (HeLa cells; PKIS compound screen) of the same molecule?
The value was 0.63.

What about the “z-scoreHeLa rep 3” value (HeLa cells; PKIS compound screen) of the same molecule?
Its value is 0.73.

What about the “cell count rep 1” value (HeLa cells; [1]) of the same molecule?
The value was 6971.

What about the “cell count rep 2” value (HeLa cells; [1]) of the same molecule?
The value was 6954.

What about the “cell count rep 3” value (HeLa cells; [1]) of the same molecule?
The value was 6744.

What about the “%GFP+ rep 1” value (intracellular MRSA; [9]) of the same molecule?
Its value is 16.2%.

What about the “%GFP+ rep 2” value (intracellular MRSA; [9]) of the same molecule?
The value was 17.1%.

And the “%GFP+ rep 3” value (intracellular MRSA; [9])?
The value was 17.2%.

What about the “z-scoreMRSA+ mean” value (intracellular MRSA; [10]) of the same molecule?
The value was -0.81.

And the “z-scoreMRSA+ rep 1” value (intracellular MRSA; [10])?
Its value is -0.69.

What about the “z-scoreMRSA+ rep 2” value (intracellular MRSA; [10]) of the same molecule?
The value was -0.63.

And the “z-scoreMRSA+ rep 3” value (intracellular MRSA; [10])?
The value was -1.10.

And the effect (intracellular MRSA; [13])?
The effect was “No”.

And the hit (intracellular MRSA; [11])?
The hit was “No”.

What about the effect (intracellular MRSA; [12]) of the same molecule?
Its effect is “No”.

What about the “z-scoreMRSA+ mean” value (intracellular MRSA; PKIS compound screen) of the same molecule?
The value was 0.11.

What about the “z-scoreMRSA+ rep 1” value (intracellular MRSA; PKIS compound screen) of the same molecule?
The value was 0.16.

And the “z-scoreMRSA+ rep 2” value (intracellular MRSA; PKIS compound screen)?
The value was 0.22.

What about the “z-scoreMRSA+ rep 3” value (intracellular MRSA; PKIS compound screen) of the same molecule?
The value was -0.07.

What about the “%GFP+ rep 1” value (intracellular MRSA; [3]) of the same molecule?
Its value is 27.9%.

What about the “%GFP+ rep 2” value (intracellular MRSA; [3]) of the same molecule?
Its value is 27.2%.

What about the “%GFP+ rep 3” value (intracellular MRSA; [3]) of the same molecule?
Its value is 26.9%.
